Laboratory results: patent US9242006B2, “Composition of chlorin e6 stabilized within albumin for the photodynamic diagnosis and therapy of tumors” (APOCARE PHARMA GMBH, priority 2011, dated 2016)

How the values were obtained:
[1] = 48 hours after administration; cited from earlier work
[2] = Storage stability of chlorin e6 in aqueous solutions with or without human serum albumin, measured by analytical HPLC; type: physicochemical; settings: for residual active ingredient content / residual active ingredient content (HPLC area) / residual active ingredient content compared with 5 wt. % HSA / residual content of chlorin e6 (HPLC area) / residual chlorin e6 (HPLC area): 30° C.; for residual active ingredient content / residual active ingredient content (HPLC area): 5 wt. % HSA; for residual active ingredient content: all three pH values (7.0, 7.5, 8.0); for residual active ingredient content compared with 5 wt. % HSA: 10 wt. % HSA, pH 7 and pH 7.5; for residual content of chlorin e6 (HPLC area): 20 wt. % HSA; for residual content of chlorin e6 (mean) / residual active ingredient content (mean) / residual active ingredient content (HPLC area, mean) / residual active ingredient content (bound) / residual chlorin e6 (HPLC area, mean): 5° C.; for residual content of chlorin e6 (mean): pH 8.0, 1.25 wt. % HSA; for residual active ingredient content (mean): pH 8.0, 2.5 wt. % HSA; for residual active ingredient content (HPLC area, mean) / residual active ingredient content (bound): pH 8.0, 5 wt. % HSA; for residual chlorin e6 (HPLC area, mean): pH 8.0, pure buffer
Description: In order to determine the stability of a composition comprising chlorin e6 and an albumin, three buffer solutions with pH values of 7.0, 7.5 and 8.0, each of which contained potassium dihydrogen phosphate (Merck) and disodium hydrogen phosphate (Merck) as buffer salts, were prepared and sterilised.
Starting from a 20 wt. % stock solution of human serum albumin (Biotest AG), dilute solutions comprising 10 wt. %, 5 wt. % and 0 wt. % human serum albumin were then prepared by means of the above buffer solutions. For the buffering of the 20 wt. % stock solution of human serum albumin, the buffer salts were added in the form of solids directly to 20 ml aliquots of the stock solution.
Thereafter, 2 ml of each of the various buffered solutions were introduced into brown glass bottles with crimped caps, and 40 μl of a 75 mM solution of chlorin e6 sodium salt (ORPEGEN Peptide Chemicals GmbH) in water were added thereto. In this manner there were prepared aqueous solutions of chlorin e6 sodium salt having a concentration of 0 wt. %, 1.25 wt. %, 2.5 wt. %, 5 wt. %, 10 wt. % and 20 wt. % human serum albumin which had pH values of 7.0, 7.5 and 8.0. For the purpose of reproducibility of the results, the individual solutions were each made up several times.
The solutions were re-packaged in a light-tight manner and incubated at 30° C. in a drying cabinet or at 5° C. in a refrigerator. […] Maisch GmbH); eluant: 80 mM triethylammonium phosphate buffer pH 2.25/acetonitrile). The extent of the decomposition of chlorin e6 was calculated in each case by comparing the areas under the peak belonging to chlorin e6 in the HPLC diagram before and after storage.

C=Cc1c(C)c2cc3nc(c(CC(=O)O)c4[nH]c(cc5nc(cc1[nH]2)C(C)=C5CC)c(C)c4C(=O)O)[C@@H](CCC(=O)O)[C@@H]3C [chlorin e6]
active substance detectable in the human organism [1]: only traces
residual active ingredient content ([2]; 4 weeks): > 95%
residual active ingredient content (HPLC area) ([2]; 4 weeks, pH 7.0): 95.3 % area
residual active ingredient content (HPLC area) ([2]; 4 weeks, pH 7.5): 97.5 % area
residual active ingredient content (HPLC area) ([2]; 4 weeks, pH 8.0): 98.6 % area
residual active ingredient content compared with 5 wt. % HSA ([2]; 4 weeks): slightly higher
residual content of chlorin e6 (HPLC area) ([2]; 4 weeks, pH 7.0): 94.6 % area
residual content of chlorin e6 (HPLC area) ([2]; 4 weeks, pH 7.5): 96.4 % area
residual content of chlorin e6 (HPLC area) ([2]; 4 weeks, pH 8.0): 96.6 % area
residual chlorin e6 (HPLC area) ([2]; 4 weeks, pure buffer, no HSA, pH 7.0): 1.9 % area
residual chlorin e6 (HPLC area) ([2]; 4 weeks, pure buffer, no HSA, pH 7.5): 2.4 % area
residual chlorin e6 (HPLC area) ([2]; 4 weeks, pure buffer, no HSA, pH 8.0): 3.6 % area
residual content of chlorin e6 (mean) ([2]; 6 months): approximately 83.6%
residual active ingredient content (mean) ([2]; 6 months): approximately 96.6%
residual active ingredient content (HPLC area, mean) ([2]; 6 months): 97.9 % area
residual active ingredient content (bound) ([2]; 6 months): > 97%
residual chlorin e6 (HPLC area, mean) ([2]; 6 months, no HSA): 1.1 % area
residual content of chlorin e6 (mean) ([2]; 9 months): approximately 84.9%
residual active ingredient content (mean) ([2]; 9 months): approximately 93.8%
residual active ingredient content (HPLC area, mean) ([2]; 9 months): 96.4 % area
residual active ingredient content (bound) ([2]; 9 months): > 96%
residual chlorin e6 (HPLC area, mean) ([2]; 9 months, no HSA): 1.74 % area
residual active ingredient content ([2]; 10 weeks): > 94%
residual active ingredient content (HPLC area) ([2]; 10 weeks, pH 7.0): 94.1 % area
residual active ingredient content (HPLC area) ([2]; 10 weeks, pH 7.5): 96.0 % area
residual active ingredient content (HPLC area) ([2]; 10 weeks, pH 8.0): 97.8 % area
residual active ingredient content compared with 5 wt. % HSA ([2]; 10 weeks): slightly higher
residual content of chlorin e6 (HPLC area) ([2]; 10 weeks, pH 7.0): 91.9 % area
residual content of chlorin e6 (HPLC area) ([2]; 10 weeks, pH 7.5): 94.0 % area
residual content of chlorin e6 (HPLC area) ([2]; 10 weeks, pH 8.0): 95.9 % area
residual chlorin e6 (HPLC area) ([2]; 10 weeks, pure buffer, no HSA, pH 7.0): 0 % area
residual chlorin e6 (HPLC area) ([2]; 10 weeks, pure buffer, no HSA, pH 7.5): 0.52 % area
residual chlorin e6 (HPLC area) ([2]; 10 weeks, pure buffer, no HSA, pH 8.0): 0.89 % area
residual content of chlorin e6 (mean) ([2]; 12 months): approximately 69.5%
residual active ingredient content (mean) ([2]; 12 months): approximately 93.6%
residual active ingredient content (HPLC area, mean) ([2]; 12 months): 96.7 % area
residual active ingredient content (bound) ([2]; 12 months): > 96%
residual chlorin e6 (HPLC area, mean) ([2]; 12 months, no HSA): 0.26 % area
residual chlorin e6 (HPLC area) ([2]; 4 days, addition of Na caprylate or N-acetyl-DL-tryptophan, no human serum albumin): 68.8 % area
residual chlorin e6 (HPLC area) ([2]; 4 days, buffer solution pH 8, 5 wt. % human serum albumin): 97.8 % area
residual chlorin e6 (HPLC area) ([2]; 4 days, non-buffered solution adjusted to pH 7, 5% human serum albumin): 97.0 % area
residual chlorin e6 (HPLC area) ([2]; 4 days, pure buffer solution pH 8, no human serum albumin): 59.1 % area
storage life of aqueous solution of chlorin e6 with human serum albumin ([2]; storage at 2 to 8° C., extrapolated from data of FIGS. 1 to 6): at least 12 months
